Data on 16 molecules can be found in ChEMBL document CHEMBL3259577, “Antagonists of the kappa opioid receptor” (Bioorg Med Chem Lett, 2014).

The target in data set [1] is T1, Mu-type opioid receptor (Homo sapiens, UniProt P35372). As to the kind of experiment: Inhibition of mu opioid receptor (unknown origin) using DAMGO by high content imaging beta-arrestin translocation assay.
The target in data set [2] is T2, Delta-type opioid receptor (Homo sapiens, UniProt P41143). As to the kind of experiment: Inhibition of delta opioid receptor (unknown origin) using SNC-80 by high content imaging beta-arrestin translocation assay.
T2 sequence (P41143 whole entry): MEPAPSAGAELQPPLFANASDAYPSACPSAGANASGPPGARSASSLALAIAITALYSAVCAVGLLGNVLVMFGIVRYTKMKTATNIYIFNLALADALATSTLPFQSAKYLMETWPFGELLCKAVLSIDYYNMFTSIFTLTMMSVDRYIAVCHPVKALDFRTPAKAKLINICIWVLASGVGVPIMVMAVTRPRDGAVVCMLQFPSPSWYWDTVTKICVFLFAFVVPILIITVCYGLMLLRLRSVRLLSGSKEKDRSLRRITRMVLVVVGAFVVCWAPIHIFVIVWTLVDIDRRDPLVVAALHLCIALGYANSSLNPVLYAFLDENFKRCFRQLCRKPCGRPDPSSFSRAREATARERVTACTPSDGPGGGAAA
Data set [3] has as its target T3, Kappa-type opioid receptor (Homo sapiens, UniProt P41145). The data set can be described thus: Inhibition of kappa opioid receptor (unknown origin) using dynorphin A by DiscoveryRx b-arrestin PathHunter assay.
The target in data set [4] is T3, Kappa-type opioid receptor. The data set can be described thus: Inhibition of kappa opioid receptor (unknown origin) using dynorphin A by high content imaging beta-arrestin translocation assay.
Data set [5] has as its target T1, Mu-type opioid receptor. The data set can be described thus: Antagonist activity at human cloned mu opioid receptor expressed in CHO cells assessed as inhibition of DAMGO-stimulated [35S]-GTP[gammaS] binding. The class given is cell-based. For orientation: GTPγS is a poorly hydrolysed GTP analogue; its binding reports G protein activation.
The target in data set [6] is T3, Kappa-type opioid receptor. The data set can be described thus: Antagonist activity at human cloned kappa opioid receptor expressed in CHO cells assessed as inhibition of Dynorphin A-stimulated [35S]-GTP[gammaS] binding. The class given is functional, cell-based.
The species entered for data set [7] is Mus musculus. The data set can be described thus: Antinociceptive activity in mouse assessed as reversal of U50488-induced withdrawl latencies. It is filed as functional.
In data set [8] the target is Kappa-type opioid receptor (Rattus norvegicus) (UniProt P34975). The data set can be described thus: Displacement of [3H]CI977 from rat forebrain OPRK.
Chain of Kappa-type opioid receptor (Rattus norvegicus) (P34975 whole entry): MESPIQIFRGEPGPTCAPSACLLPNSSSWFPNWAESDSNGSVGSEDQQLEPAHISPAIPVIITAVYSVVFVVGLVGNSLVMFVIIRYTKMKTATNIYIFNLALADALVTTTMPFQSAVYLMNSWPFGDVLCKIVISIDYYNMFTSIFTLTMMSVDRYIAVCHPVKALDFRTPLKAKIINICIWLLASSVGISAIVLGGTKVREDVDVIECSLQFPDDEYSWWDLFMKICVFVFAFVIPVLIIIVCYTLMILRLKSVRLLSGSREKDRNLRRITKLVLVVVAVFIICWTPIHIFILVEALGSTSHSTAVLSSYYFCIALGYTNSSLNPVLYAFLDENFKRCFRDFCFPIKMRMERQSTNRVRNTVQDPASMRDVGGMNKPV
Data set [9] has as its target Mu-type opioid receptor (Rattus norvegicus) (UniProt P33535). The data set can be described thus: Displacement of [3H]DAMGO from rat forebrain OPRM.
For data set [10], the target named is Kappa-type opioid receptor (Rattus norvegicus) (UniProt P34975). As to the kind of experiment: Displacement of [3H]CI977 from rat forebrain OPRK assessed as maximal binding after 30 mins.
The subject of data set [11] is Rattus norvegicus. The data set can be described thus: Reduction in spiradoline-induced sc dosed rat plasma prolactin levels. It is filed as functional. Conditions: read-out: ID50 (the source's name).
Data set [12] deals with Mu-type opioid receptor (Cavia porcellus) (UniProt P97266). As to the kind of experiment: Antagonist activity at mu opioid receptor in guinea pig caudate assessed as inhibition of DAMGO-stimulated [35S]-GTP[gammaS] binding. It is filed as functional.
Chain of Mu-type opioid receptor (Cavia porcellus) (P97266 whole entry): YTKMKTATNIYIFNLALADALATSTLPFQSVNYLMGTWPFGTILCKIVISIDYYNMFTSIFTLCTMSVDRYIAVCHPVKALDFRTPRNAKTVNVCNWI
For data set [13], the species on record is Cavia porcellus. The data set can be described thus: Antagonist activity at delta opioid receptor in guinea pig caudate assessed as inhibition of SNC-80-stimulated [35S]-GTP[gammaS] binding.
Data set [14] has as its target Kappa-type opioid receptor (Cavia porcellus) (UniProt P41144).
The target of data set [15] is T3, Kappa-type opioid receptor. The data set can be described thus: Displacement of [3H]diprenorphine from kappa opioid receptor (unknown origin) expressed in CHO cells membranes. The class given is cell membranes.
Data set [16] addresses T1, Mu-type opioid receptor. As to the kind of experiment: Displacement of [3H]diprenorphine from mu opioid receptor (unknown origin) expressed in CHO cells membranes. The class given is cell membranes. On the technique in general: In a radioligand displacement assay an active substance lowers the binding of a labelled ligand.
Data set [17] addresses T2, Delta-type opioid receptor. The data set can be described thus: Displacement of [3H]diprenorphine from delta opioid receptor (unknown origin) expressed in CHO cells membranes. It is filed as cell membranes.
The target in data set [18] is Kappa-type opioid receptor (Cavia porcellus, UniProt P41144). As to the kind of experiment: Antagonist activity at kappa opioid receptor in guinea pig ileum assessed as inhibition of U50488-stimulated [35S]-GTP[gammaS] binding. It is filed as functional, tissue-based. Conditions: read-out: pA2 (converted).
Chain of Kappa-type opioid receptor (Cavia porcellus, UniProt P41144) (P41144 whole entry): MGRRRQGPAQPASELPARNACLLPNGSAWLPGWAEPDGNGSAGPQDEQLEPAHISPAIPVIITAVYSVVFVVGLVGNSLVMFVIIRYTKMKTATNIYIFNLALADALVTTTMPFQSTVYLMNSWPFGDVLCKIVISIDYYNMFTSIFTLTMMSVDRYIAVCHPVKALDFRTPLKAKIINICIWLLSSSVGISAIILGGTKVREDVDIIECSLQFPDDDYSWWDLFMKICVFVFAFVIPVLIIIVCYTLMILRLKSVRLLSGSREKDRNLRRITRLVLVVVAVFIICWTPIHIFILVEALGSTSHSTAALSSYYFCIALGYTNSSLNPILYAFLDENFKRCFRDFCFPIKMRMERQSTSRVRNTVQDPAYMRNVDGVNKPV
The target in data set [19] is Mu-type opioid receptor (Cavia porcellus, UniProt P97266). As to the kind of experiment: Antagonist activity at mu opioid receptor in guinea pig ileum assessed as inhibition of DAMGO-stimulated [35S]-GTP[gammaS] binding. It is filed as functional, tissue-based. The note with it: read-out: pA2 (converted).
Chain of Mu-type opioid receptor (Cavia porcellus, UniProt P97266) (P97266 whole entry): as the sequence (P97266 whole entry) above
Data set [20] addresses Muscarinic acetylcholine receptor M2 (Homo sapiens, UniProt P08172). The data set can be described thus: Binding affinity to muscarinic M2 receptor (unknown origin).
Data set [21] deals with Muscarinic acetylcholine receptor M3 (Homo sapiens, UniProt P20309). The data set can be described thus: Binding affinity to muscarinic M3 receptor (unknown origin).
Chain of Muscarinic acetylcholine receptor M3 (P20309 whole entry): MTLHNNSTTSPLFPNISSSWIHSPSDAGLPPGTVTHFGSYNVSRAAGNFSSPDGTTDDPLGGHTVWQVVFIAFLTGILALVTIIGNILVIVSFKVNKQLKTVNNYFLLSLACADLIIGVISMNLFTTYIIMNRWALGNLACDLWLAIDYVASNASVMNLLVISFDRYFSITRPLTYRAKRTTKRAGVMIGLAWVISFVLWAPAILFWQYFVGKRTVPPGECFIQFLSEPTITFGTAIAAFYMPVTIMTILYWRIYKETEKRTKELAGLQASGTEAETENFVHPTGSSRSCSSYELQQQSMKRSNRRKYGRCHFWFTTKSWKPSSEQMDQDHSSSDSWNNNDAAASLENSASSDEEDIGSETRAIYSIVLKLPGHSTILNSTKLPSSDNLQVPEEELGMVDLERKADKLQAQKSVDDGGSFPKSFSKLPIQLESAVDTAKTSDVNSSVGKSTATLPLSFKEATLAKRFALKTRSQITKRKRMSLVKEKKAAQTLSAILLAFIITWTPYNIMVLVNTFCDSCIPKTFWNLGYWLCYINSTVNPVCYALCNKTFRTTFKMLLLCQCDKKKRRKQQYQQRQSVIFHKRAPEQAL
Data set [22] addresses Muscarinic acetylcholine receptor M4 (Homo sapiens, UniProt P08173). As to the kind of experiment: Binding affinity to muscarinic M4 receptor (unknown origin).
In data set [23] the target is Sigma non-opioid intracellular receptor 1 (Homo sapiens, UniProt Q99720). As to the kind of experiment: Binding affinity to sigma-1 receptor (unknown origin).
Chain of Sigma non-opioid intracellular receptor 1 (Q99720 whole entry): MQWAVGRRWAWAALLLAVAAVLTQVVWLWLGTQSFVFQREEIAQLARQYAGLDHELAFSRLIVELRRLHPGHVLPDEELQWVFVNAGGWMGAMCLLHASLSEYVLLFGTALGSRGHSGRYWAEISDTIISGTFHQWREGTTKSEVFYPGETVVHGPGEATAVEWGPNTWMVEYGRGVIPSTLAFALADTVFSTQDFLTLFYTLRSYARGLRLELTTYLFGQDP
For data set [24], the target named is Histamine H1 receptor (Homo sapiens, UniProt P35367). As to the kind of experiment: Binding affinity to histamine H1 receptor (unknown origin).
Chain of Histamine H1 receptor (P35367 whole entry): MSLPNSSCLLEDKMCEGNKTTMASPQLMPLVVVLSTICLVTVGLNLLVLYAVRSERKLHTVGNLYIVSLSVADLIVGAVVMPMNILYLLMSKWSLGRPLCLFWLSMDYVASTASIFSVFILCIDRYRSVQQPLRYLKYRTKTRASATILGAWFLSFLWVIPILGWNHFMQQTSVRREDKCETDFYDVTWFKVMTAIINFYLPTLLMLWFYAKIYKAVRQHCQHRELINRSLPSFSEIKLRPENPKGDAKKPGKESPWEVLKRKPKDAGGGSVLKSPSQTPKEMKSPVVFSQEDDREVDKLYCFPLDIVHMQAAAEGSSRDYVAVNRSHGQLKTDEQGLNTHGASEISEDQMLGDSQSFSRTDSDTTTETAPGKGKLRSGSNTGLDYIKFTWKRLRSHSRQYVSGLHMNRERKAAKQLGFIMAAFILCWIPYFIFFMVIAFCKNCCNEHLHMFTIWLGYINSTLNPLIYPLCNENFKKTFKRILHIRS
Data set [25] addresses Sodium-dependent noradrenaline transporter (Homo sapiens, UniProt P23975). As to the kind of experiment: Binding affinity to NET (unknown origin).
The target in data set [26] is D(3) dopamine receptor (Homo sapiens, UniProt P35462). The data set can be described thus: Binding affinity to dopamine D3 receptor (unknown origin).
A short description of data set [27]: Drug metabolism in mouse liver microsomes assessed as compound remaining after 1 hr. The class given is ADME. Conditions: read-out: Drug metabolism.
The target in data set [28] is T3, Kappa-type opioid receptor. The data set can be described thus: Agonist activity at human cloned kappa opioid receptor expressed in CHO cells assessed as stimulation of [35S]-GTP[gammaS] binding. The class given is functional, cell-based.
Data set [29] has as its target T1, Mu-type opioid receptor. The data set can be described thus: Agonist activity at human cloned mu opioid receptor expressed in CHO cells assessed as stimulation of [35S]-GTP[gammaS] binding. It is filed as cell-based.
For data set [30], the target named is T2, Delta-type opioid receptor. As to the kind of experiment: Agonist activity at human cloned delta opioid receptor expressed in CHO cells assessed as stimulation of [35S]-GTP[gammaS] binding. It is filed as functional, cell-based.
Data set [31] relates to CHO. The data set can be described thus: Selectivity ratio of Ki for mu opioid receptor (unknown origin) expressed in CHO cell membranes to Ki for kappa opioid receptor (unknown origin) expressed in CHO cell membranes. It is filed as cell-based. The note with it: Homo sapiens.
The test system of data set [32] is CHO. As to the kind of experiment: Selectivity ratio of Ki for delta opioid receptor (unknown origin) expressed in CHO cell membranes to Ki for kappa opioid receptor (unknown origin) expressed in CHO cell membranes. The class given is cell-based. Conditions: Homo sapiens.

SMILES strings stand for the structures. Peptide text beside a SMILES is read from it. Where only a bound is given, the exact number is not on record here.

T3 sequence (P41145 whole entry): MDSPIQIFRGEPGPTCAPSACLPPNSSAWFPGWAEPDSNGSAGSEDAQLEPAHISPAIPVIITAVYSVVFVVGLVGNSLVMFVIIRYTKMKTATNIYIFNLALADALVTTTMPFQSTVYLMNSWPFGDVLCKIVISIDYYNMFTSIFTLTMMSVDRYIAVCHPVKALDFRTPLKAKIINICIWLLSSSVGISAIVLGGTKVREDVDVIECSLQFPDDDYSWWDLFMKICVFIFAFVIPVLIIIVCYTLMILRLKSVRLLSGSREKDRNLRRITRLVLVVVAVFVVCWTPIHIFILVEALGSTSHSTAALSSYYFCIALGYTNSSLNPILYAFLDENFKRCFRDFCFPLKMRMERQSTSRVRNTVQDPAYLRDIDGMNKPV
T1 sequence (P35372 whole entry): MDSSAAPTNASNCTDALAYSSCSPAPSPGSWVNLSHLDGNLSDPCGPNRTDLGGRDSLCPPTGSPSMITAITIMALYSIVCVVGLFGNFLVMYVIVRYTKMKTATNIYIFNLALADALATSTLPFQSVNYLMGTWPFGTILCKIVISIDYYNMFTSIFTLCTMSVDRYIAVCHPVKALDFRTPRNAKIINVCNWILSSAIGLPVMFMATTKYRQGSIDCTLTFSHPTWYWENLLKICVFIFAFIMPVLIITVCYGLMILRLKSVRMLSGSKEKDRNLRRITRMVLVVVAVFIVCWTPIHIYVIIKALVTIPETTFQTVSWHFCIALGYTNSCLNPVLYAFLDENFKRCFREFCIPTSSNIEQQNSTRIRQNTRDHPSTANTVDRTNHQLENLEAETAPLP
Chain of Kappa-type opioid receptor (Cavia porcellus) (P41144 whole entry): as the sequence (P41144 whole entry) above
Chain of Mu-type opioid receptor (Rattus norvegicus) (P33535 whole entry): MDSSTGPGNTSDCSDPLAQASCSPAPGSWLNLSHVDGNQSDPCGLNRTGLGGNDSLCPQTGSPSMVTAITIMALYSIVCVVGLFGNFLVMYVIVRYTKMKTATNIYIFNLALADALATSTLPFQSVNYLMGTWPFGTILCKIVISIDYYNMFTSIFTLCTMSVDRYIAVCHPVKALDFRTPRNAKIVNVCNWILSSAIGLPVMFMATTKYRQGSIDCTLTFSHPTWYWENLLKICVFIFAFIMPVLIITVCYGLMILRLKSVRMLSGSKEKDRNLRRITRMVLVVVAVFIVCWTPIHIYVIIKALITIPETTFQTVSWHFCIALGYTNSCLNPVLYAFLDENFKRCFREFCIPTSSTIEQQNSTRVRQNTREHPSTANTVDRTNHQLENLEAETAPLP
Chain of Muscarinic acetylcholine receptor M4 (P08173 whole entry): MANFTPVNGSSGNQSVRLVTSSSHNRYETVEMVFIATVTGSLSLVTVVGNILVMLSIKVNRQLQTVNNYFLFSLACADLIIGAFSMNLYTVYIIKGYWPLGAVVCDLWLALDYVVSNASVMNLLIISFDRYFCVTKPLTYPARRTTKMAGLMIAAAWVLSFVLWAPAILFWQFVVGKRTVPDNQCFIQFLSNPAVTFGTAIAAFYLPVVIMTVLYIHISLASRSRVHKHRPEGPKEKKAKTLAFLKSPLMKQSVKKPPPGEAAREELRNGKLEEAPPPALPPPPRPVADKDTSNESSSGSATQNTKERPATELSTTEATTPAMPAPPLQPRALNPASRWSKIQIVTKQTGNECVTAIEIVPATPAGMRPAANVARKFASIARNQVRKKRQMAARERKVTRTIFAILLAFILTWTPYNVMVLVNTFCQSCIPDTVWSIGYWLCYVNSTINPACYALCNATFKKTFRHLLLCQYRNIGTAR
Chain of Sodium-dependent noradrenaline transporter (P23975 whole entry): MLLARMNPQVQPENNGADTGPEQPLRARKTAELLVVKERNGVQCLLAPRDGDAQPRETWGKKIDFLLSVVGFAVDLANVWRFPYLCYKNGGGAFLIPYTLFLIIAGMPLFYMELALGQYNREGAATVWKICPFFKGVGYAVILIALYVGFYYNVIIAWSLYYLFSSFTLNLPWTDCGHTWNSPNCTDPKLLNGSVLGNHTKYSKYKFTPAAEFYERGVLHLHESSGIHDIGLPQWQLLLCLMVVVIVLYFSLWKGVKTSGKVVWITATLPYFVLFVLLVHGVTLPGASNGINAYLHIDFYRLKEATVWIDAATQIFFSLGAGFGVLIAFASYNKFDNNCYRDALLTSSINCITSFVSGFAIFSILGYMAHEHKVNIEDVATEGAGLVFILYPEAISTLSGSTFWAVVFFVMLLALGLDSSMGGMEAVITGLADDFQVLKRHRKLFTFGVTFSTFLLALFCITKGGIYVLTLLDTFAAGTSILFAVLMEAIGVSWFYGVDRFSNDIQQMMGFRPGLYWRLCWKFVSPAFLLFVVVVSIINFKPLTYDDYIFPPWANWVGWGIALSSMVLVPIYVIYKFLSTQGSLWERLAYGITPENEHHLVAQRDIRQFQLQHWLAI

A word on the IC50: it is the point on the concentration scale where inhibition reaches its midpoint. Low values mean greater potency in that assay, high ones weaker potency in that assay. For `Cc1ccc(S(=O)(=O)NCc2ccc(C(=O)NCCN(Cc3ccc(Br)cc3)C(C)C)cc2)cc1`, the IC50 in data set [1] and in [2] was > 32 µM in each case.
With `Cc1ccc(S(=O)(=O)NCc2ccc(C(=O)NCCCN(Cc3ccccc3)C(C)C)cc2)cc1`, the IC50 in [1] was > 32 µM; in data set [3], > 20 µM; in data set [4], > 32 µM; in data set [2], > 32 µM.
Take `C[C@@H]1NC(=O)[C@H](Cc2c[nH]c3ccccc23)NC(=O)[C@H](Cc2ccccc2)NC(=O)[C@@H]2CCCN2C1=O` (cyclo(APFW)): in data set [5], the Ke worked out at 7.3 nM. Also, the Kb in data set [6] came to 0.0026 µM. Besides, the Time in data set [7] is <18 h.
With `CC(C)CNCc1ccc(-c2ccccc2S(=O)(=O)N2CCCC2)cc1` [PF-04455242], the results for the ID50 in [8] and in [9] were 2 mg/kg and 8.6 mg/kg, respectively. In addition, the Activity in data set [10] was found to be 82%. For the same molecule, in data set [11], the ED50 turned out to be 2.3 mg/kg.
For the molecule `CC(C)CC(=O)N1Cc2cc(O)ccc2C[C@@H]1C(=O)N[C@H](CN1CC[C@@](C)(c2cccc(O)c2)[C@@H](C)C1)C(C)C`, the Ke was determined as 29 nM in data set [12], 628 nM in data set [13] and 0.16 nM in data set [14].
As to `CC(C)[C@@H](CN1CC[C@@](C)(c2cccc(O)c2)[C@@H](C)C1)NC(=O)[C@H]1Cc2ccc(O)cc2CN1C`, the Ke in data set [13] was > 300 nM.
Turning to `COc1ccc(N2CCN(CCCNC(=O)Cn3c(=O)c4cccn4c4cc(Br)cnc43)CC2)cc1`, the IC50 in data set [2] is > 32 µM.
For `COc1ccc(N2CCN(CCCNC(=O)Cn3c(=O)c4cccn4c4c(C)ccnc43)CC2)c(OC)c1`, the IC50 in data set [3] was 0.19 µM; in [4], 0.004 µM; in [2], > 32 µM.
`CCc1ccc(S(=O)(=O)NCc2ccc(C(=O)NCCN(Cc3ccccc3)C(C)C)cc2)cc1`: the IC50 in [1] is > 32 µM; in data set [3], 1.12 µM; in data set [2] it was > 32 µM.
As to `CC(C)[C@@H](CN1CC[C@@](C)(c2cccc(O)c2)[C@@H](C)C1)NC(=O)[C@H](N)Cc1ccc(O)cc1`, the Ke was 12 nM in data set [12], 334 nM in data set [13] and 44.6 nM in [14].
Turning to `CC(C)[C@@H](CN1CC[C@@](C)(c2cccc(O)c2)[C@@H](C)C1)NC(=O)[C@@H](N)Cc1ccc(O)cc1`, in [13], the Ke amounted to 452 nM.
For orientation: Ki means the dissociation constant of the complex between target and ligand, obtained from inhibition or displacement. Low readings indicate higher affinity, high ones lower affinity. For `C[C@H]1CN(CCCOC(=O)[C@H]2Cc3ccc(O)cc3CN2)CC[C@@]1(C)c1cccc(O)c1`, the values for the Ki in data set [15], in data set [16] and in data set [17] were 0.0252 µM, 0.00655 µM and 0.221 µM, respectively. Further, the Kb in data set [18] is 0.174 µM; in data set [19], 0.0933 µM.
As to `Cc1ccc(S(=O)(=O)NCc2ccc(C(=O)NCCN(Cc3ccccc3)C(C)(C)C)cc2)cc1`, the values for the IC50 in data set [3], in data set [4] and in [2] were 0.06 µM, 0.03 µM and > 32 µM, respectively. Further, the Ki in [20], in [21], in data set [22] and in data set [23] was < 1 µM each time.
On to `COc1ccc(N2CCN(CCCNC(=O)Cn3c(=O)c4cccn4c4c(C)ccnc43)CC2)cc1`, for which the IC50 in data set [1] and in [2] was > 32 µM each time. The Ki in [24], in data set [25] and in data set [26] was < 1 µM throughout. In [27], the remaining at 1 h was 7.34%.
The EC50 is the concentration needed to bring the measured effect to its halfway point. As to `CC1CN(CCCc2ccccc2)C2C[C@H](NCC3CC3)CC1(c1cccc(O)c1)C2` (stereo partly specified), the EC50 in [28] was > 5 µM; in [29] it was 130 µM; in data set [30] it was > 5 µM.
In the case of `CC[C@H](C)[C@@H]1NC(=O)[C@H](CCCNC(=N)N)NC(=O)[C@@H](NC(=O)[C@H](Cc2ccccc2)NC(=O)CNC(=O)CNC(=O)[C@H](Cc2ccc(O)cc2)NCc2ccccc2)CC(=O)NC[C@@H](C(=O)N[C@@H](CCCNC(=N)N)C(=O)N2CCC[C@H]2C(=O)N[C@@H](CCCCN)C(N)=O)NC1=O`, the Ratio Ki in data set [31] was 194; in data set [32] it was > 330.
